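Results reflect a 48-hour exposure of cells in 96-well plates to compound at five concentrations. The concentration for 50% growth inhibition is given as GI50.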 Activity calls are given as the source filed them. No stated cut-off is given here; in the data, active = GI50 up to about 1.1 µM and inactive = higher.

What all share (assay): NCI anticancer screen, dose series, 48 h
Test [1] deals with OVCAR-5.
Test [2] has as its system EKVX.
Test [3] concerns ACHN.
In test [4] the test system is RXF 393.
The test system of test [5] is SW-620.
In test [6] the test system is OVCAR-8.
For test [7], the system named is SF-539.
The subject of test [8] is UO-31.
Test [9] concerns MDA-MB-231.
The subject of test [10] is Malme-3M.
Test [11] has as its system Hs-578T.
In test [12] the test system is U-251.
In test [13] the test system is UACC-257.
The subject of test [14] is SK-MEL-28.
Test [15] deals with PC-3.
Test [16] has as its system HL-60.
Test [17] relates to HOP-92.
Test [18] concerns CAKI-1.
For test [19], the system named is 786-0.
Test [20] relates to HCT-116.

With `CCP(=O)(OC)C1=CCN(C(=O)OCC[Si](C)(C)C)CC1` (stereo not drawn), the GI50 in test [1], in test [2], in test [3], in test [4], in [5] and in [6] was > 100 µM (inactive) each time. The GI50 was 72.9 µM (inactive) in test [7]; > 100 µM (inactive) in [8]; > 100 µM (inactive) in test [9]; > 100 µM (inactive) in test [10]; > 100 µM (inactive) in [11]; > 100 µM (inactive) in test [12]. Also, the GI50 in test [13], in test [14], in [15], in test [16], in test [17] and in [18] was > 100 µM (inactive) in each case. In test [19], the GI50 is > 100 µM (inactive).
Regarding `O=C(/C=C/c1ccc2c(c1)OCO2)Cc1nc2ncccc2[nH]c1=O`, the GI50 in test [1] is > 100 µM (inactive); in test [2] it was > 100 µM (inactive); in test [3], 32.2 µM (inactive); in test [4], 49.4 µM (inactive); in test [5], > 100 µM (inactive); in [6] it was 59.8 µM (inactive). In addition, the GI50 in [7] is 53.7 µM (inactive); in test [8], > 100 µM (inactive); in test [9], > 100 µM (inactive); in [10], > 100 µM (inactive); in [20], > 100 µM (inactive); in test [11] it was 36.5 µM (inactive). Also, the GI50 in test [12] is 31.1 µM (inactive); in test [13], > 100 µM (inactive); in test [14], > 100 µM (inactive); in test [15] it was > 100 µM (inactive); in test [16], > 100 µM (inactive); in test [17] it was > 100 µM (inactive). Also, the GI50 in [18] is > 100 µM (inactive); in [19] it was 75.3 µM (inactive).
`CCOC(=O)c1ccc(C(=O)/C(C#N)=C2\CCCN2)[nH]1`: the GI50 in test [1] is > 100 µM (inactive); in [2], 11.7 µM (inactive); in test [4], 14.8 µM (inactive); in test [5] it was 79.4 µM (inactive); in [6], > 100 µM (inactive); in [7], > 100 µM (inactive). The GI50 in test [8] was > 100 µM (inactive); in [9] it was > 100 µM (inactive); in test [10], > 100 µM (inactive); in test [20], 82.4 µM (inactive); in [11], > 100 µM (inactive); in test [12] it was > 100 µM (inactive). Besides, the GI50 was > 100 µM (inactive) in test [13]; > 100 µM (inactive) in [14]; 67.8 µM (inactive) in [15]; 66.5 µM (inactive) in test [16]; > 100 µM (inactive) in test [17]; > 100 µM (inactive) in [18]. Besides, the GI50 in [19] was > 100 µM (inactive).
On to `CC[C@H]1C=CCC[C@@]2(C[C@@H]3CC[C@@H]4[C@H](C(=O)OCCCCCCCCCCCCCCCC(=O)N(CCCNC(C)=O)C[C@H](CCNC(C)=O)OC(C)=O)[C@]5(CCC[C@@H](C)O5)NC(=[N+]34)N2)O1`, for which the GI50 in [1] is 0.0557 µM (active); in [2], 0.392 µM (active); in test [3], 0.382 µM (active); in test [4], 0.187 µM (active); in [5], 0.264 µM (active); in [6], 0.614 µM (active). The GI50 is 0.26 µM (active) in test [7]; 1.2 µM (inactive) in [8]; 0.0914 µM (active) in test [9]; 0.21 µM (active) in test [10]; 0.0405 µM (active) in test [20]; 0.391 µM (active) in [11]. Moreover, the GI50 is 0.0538 µM (active) in test [12]; 0.0281 µM (active) in [13]; 0.757 µM (active) in [14]; 0.0349 µM (active) in test [15]; 0.0745 µM (active) in test [16]; 0.0659 µM (active) in test [17]. The GI50 in test [18] is 0.561 µM (active); in [19] it was 0.109 µM (active).

(Values after ChEMBL document CHEMBL1201862, “PubChem BioAssay data set” (2004).)
